Reference: BigSolDB 2.1

CCOc1ccc(C2NC(=O)NC=C2C(=O)c2cc(OC)c(OC)c(OC)c2)cc1 (stereo not given)
solubility (mole fraction) (in PEG-400, 298.15 K): 0.00513
solubility (mole fraction) (in PEG-400, 303.15 K): 0.00678
solubility (mole fraction) (in PEG-400, 308.15 K): 0.0083
solubility (mole fraction) (in PEG-400, 313.15 K): 0.0104
solubility (mole fraction) (in PEG-400, 318.15 K): 0.0122
solubility (mole fraction) (in water, 298.15 K): 8.04e-06
solubility (mole fraction) (in water, 303.15 K): 1.11e-05
solubility (mole fraction) (in water, 308.15 K): 1.52e-05
solubility (mole fraction) (in water, 313.15 K): 2.04e-05
solubility (mole fraction) (in water, 318.15 K): 2.57e-05
